Source: paper PMC12518996 (Frontiers in Pharmacology, 2025)

Tests used:
Type in all cases: in vitro ADME
CYP2C9 = CYP2C9 (Homo sapiens, UniProt P11712); assay: Metabolite formation by recombinant human CYP2C9; conditions: trazodone 4 μM; NADPH; 37 °C, 40 min
Method: (§1) Each reaction was terminated with acetonitrile, centrifuged, and the supernatant was analyzed by identical UHPLC-Orbitrap setup outlined in §2.2, allowing direct comparison of metabolite spectra across all in-vitro systems.

CYP3A2 = target: T1, CYP3A2 (Rattus norvegicus, UniProt P05183); assay: Metabolite formation by recombinant rat CYP3A2; conditions: trazodone 4 μM; NADPH; 37 °C, 40 min
T1 sequence (P05183 1-504): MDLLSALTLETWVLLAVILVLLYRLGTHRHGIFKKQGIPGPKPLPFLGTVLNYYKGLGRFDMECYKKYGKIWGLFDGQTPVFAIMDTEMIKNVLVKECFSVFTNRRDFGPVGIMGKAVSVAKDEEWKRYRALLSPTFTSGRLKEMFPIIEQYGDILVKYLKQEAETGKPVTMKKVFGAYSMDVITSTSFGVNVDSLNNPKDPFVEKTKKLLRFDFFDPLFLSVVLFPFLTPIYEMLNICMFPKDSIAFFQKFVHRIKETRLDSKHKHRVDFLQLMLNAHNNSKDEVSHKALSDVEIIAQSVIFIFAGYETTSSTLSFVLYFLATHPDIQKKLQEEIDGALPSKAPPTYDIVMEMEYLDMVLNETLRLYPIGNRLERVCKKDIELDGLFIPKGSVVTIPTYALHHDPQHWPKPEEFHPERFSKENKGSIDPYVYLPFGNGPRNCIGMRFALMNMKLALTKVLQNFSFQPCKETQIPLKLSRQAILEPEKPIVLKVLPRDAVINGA
Method: as §1

FMO1 = target: T2, FMO1 (Homo sapiens, UniProt Q01740); assay: Metabolite formation by recombinant human FMO1; conditions: trazodone 4 μM; 37 °C, 40 min
T2 sequence (Q01740 1-532): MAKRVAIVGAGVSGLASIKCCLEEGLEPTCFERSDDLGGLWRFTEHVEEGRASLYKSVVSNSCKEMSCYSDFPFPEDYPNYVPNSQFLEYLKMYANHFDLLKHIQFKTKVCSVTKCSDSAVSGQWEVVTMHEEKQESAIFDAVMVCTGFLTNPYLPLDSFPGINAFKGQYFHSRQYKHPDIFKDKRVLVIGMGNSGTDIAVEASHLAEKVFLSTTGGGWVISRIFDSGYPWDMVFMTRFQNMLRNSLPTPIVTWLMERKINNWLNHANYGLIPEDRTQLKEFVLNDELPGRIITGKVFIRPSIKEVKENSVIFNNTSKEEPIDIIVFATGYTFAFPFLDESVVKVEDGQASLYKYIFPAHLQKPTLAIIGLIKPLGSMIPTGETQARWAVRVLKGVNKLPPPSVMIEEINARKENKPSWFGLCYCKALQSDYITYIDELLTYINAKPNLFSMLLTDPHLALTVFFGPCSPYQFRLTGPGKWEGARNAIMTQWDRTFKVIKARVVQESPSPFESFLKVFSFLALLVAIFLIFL

CYP1B1 = target: T3, CYP1B1 (Rattus norvegicus, UniProt Q64678); assay: Metabolite formation by recombinant rat CYP1B1; conditions: trazodone 4 μM; NADPH; 37 °C, 40 min
T3 sequence (Q64678 1-543): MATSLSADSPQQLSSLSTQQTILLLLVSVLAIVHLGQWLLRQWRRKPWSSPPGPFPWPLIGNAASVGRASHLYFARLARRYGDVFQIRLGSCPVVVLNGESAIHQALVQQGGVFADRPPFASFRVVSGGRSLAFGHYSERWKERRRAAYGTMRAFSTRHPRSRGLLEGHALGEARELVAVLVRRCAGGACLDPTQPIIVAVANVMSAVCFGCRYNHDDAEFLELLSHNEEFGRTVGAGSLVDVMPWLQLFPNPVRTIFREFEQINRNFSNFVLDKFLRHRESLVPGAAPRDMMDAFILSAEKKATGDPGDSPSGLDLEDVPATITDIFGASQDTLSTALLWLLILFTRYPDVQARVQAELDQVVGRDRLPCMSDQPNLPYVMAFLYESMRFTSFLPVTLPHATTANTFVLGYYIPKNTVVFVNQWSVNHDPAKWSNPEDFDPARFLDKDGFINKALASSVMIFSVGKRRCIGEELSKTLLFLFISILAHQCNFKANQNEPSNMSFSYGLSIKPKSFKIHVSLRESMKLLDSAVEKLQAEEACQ
Method: To confirm the role of individual CYP isoforms in metabolizing trazodone, recombinant human and rat CYP enzymes were employed in separate incubations. […] Each reaction was terminated with acetonitrile, centrifuged, and the supernatant was analyzed by identical UHPLC-Orbitrap setup outlined in §2.2, allowing direct comparison of metabolite spectra across all in-vitro systems. […] This procedure helped confirm the contributions of individual isoforms to specific biotransformation reactions.

MAOA = target: T4, MAOA (Homo sapiens, UniProt P21397); assay: Metabolite formation by recombinant human MAOA; conditions: trazodone 4 μM; 37 °C, 40 min
T4 sequence (P21397 1-527): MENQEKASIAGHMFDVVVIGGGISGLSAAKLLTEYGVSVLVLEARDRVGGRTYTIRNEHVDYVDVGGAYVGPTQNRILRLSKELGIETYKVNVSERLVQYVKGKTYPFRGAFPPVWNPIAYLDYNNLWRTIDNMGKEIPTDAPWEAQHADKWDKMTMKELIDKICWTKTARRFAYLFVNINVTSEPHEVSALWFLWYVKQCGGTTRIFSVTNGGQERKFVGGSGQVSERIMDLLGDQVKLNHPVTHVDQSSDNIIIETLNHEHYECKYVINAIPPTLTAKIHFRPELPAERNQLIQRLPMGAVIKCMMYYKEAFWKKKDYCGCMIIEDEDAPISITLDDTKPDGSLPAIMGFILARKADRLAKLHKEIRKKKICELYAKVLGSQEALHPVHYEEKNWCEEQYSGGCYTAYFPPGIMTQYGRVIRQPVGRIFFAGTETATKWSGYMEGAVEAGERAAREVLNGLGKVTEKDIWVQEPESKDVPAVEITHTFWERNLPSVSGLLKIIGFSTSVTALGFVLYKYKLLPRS

CYP3A5 = CYP3A5 (Homo sapiens, UniProt P20815); assay: Metabolite formation by recombinant human CYP3A5; conditions: trazodone 4 μM; NADPH; 37 °C, 40 min
Sequence of CYP3A5 (P20815 whole entry): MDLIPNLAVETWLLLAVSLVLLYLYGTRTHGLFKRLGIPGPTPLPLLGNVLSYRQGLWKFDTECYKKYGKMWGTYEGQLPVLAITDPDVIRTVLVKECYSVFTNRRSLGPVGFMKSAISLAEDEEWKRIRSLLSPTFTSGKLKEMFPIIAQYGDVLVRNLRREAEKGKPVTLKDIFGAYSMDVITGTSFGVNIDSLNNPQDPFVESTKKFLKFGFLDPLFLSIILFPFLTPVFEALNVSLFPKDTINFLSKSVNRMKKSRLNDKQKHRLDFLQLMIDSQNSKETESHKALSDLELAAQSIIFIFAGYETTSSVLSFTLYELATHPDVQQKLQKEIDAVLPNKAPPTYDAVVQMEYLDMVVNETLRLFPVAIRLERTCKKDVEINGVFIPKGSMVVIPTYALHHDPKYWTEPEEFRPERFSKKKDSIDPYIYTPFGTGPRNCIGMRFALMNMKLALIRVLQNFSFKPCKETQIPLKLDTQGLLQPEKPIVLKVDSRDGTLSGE
Method: as §1

Sequence of CYP2C9 (P11712 whole entry): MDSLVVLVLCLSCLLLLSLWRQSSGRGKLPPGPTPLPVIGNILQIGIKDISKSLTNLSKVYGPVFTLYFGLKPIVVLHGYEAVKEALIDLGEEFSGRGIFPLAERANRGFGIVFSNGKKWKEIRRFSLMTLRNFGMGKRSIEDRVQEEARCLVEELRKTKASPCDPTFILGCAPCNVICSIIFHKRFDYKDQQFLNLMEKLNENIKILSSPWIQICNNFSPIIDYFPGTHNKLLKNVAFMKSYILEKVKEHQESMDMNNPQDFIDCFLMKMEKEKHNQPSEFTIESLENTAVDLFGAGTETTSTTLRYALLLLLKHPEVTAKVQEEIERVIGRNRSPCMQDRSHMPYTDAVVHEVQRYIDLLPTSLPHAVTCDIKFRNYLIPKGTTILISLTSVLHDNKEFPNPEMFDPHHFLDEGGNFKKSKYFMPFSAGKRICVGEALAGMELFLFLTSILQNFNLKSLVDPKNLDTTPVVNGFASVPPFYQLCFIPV

Compound	Formation of trazodone phase I metabolite by recombinant human CYP2C9 (as LC/MS peak areas) (CYP2C9)	Formation of trazodone phase I metabolite by recombinant rat CYP3A2 (as LC/MS peak areas) (CYP3A2)	Formation of trazodone phase I metabolite by recombinant human FMO1 (as LC/MS peak areas) (FMO1)	Formation of trazodone phase I metabolite by recombinant rat CYP1B1 (as LC/MS peak areas) (CYP1B1)	Formation of trazodone phase I metabolite by recombinant human MAOA (as LC/MS peak areas) (MAOA)	Formation of trazodone phase I metabolite by recombinant human CYP3A5 (as LC/MS peak areas) (CYP3A5)
O=c1n(CCCO)nc2ccccn12 [Metabolite M20]	0	5761	0	94	0	108
Clc1cccc(N2CCNCC2)c1 [mCPP, m-chlorophenylpiperazine]	40	45534	6	724	28	16847
O=c1n(CCCN2CCNCC2)nc2ccccn12 [Metabolite M15]	0	3368	0	22	0	3343
